The record followed here is ChEMBL document CHEMBL3046341, “Synthesis of an indolizidinedione oxime inhibitor of acetyl-coenzyme a carboxylase (ACCase)” (Bioorg Med Chem Lett, 1994).

The nature of this test: Inhibition of acetyl-coenzyme A carboxylase. The settings on record: read-out: I50.
In the case of `C=CCO/N=C(\CCC)C1=C(O)N2CCCCC2C1=O` (stereo not drawn), the IC50 worked out at 80 µM.

Take `O=C1C(c2ccc(Cl)cc2Cl)=C(O)N2CCCCC12` (stereo not drawn): the IC50 stood at 15 µM. For `CCO/N=C(\CC)C1=C(O)CC(c2c(C)cc(C)cc2C)CC1=O` (stereo not drawn) [TRALKOXYDIM], the IC50 is 1 µM.
